According to patent US20240199645A1, “POLYMORPHIC FORMS OF (S)-12-FLUORO-4-(1-METHYL-1H-PYRAZOL-5-YL)-7A,8,13,14-TETRAHYDRO-7H-[1,2,4]TRIAZOLO[4',3':1,6]PYRIDO[3,2-B]BENZOFURO[4,3-FG][1,4]OXAZONINE” (Fulcrum Therapeutics, Inc., priority 2021, published 2024):

Assay: Dynamic vapor sorption (DVS) analysis
Format: physicochemical
Settings: between about 2 to about 92% relative humidity (RH); at 25° C.
Procedure: Dynamic vapor sorption (DVS) analysis was performed using a DVS Intrinsic 1. The sample (25 mg) was loaded into a sample pan, suspended from a microbalance and exposed to a humidified stream of nitrogen gas. The sample was held for a minimum of 5 min at each level and only progressed to the next humidity level if there was <0.002% change in weight between measurements (interval: 60 seconds) or 240 min had elapsed.

Row | Structure (SMILES) | DVS mass change expressed as equivalents of water | dynamic vapor sorption (DVS) profile, mass change
1 | Cn1nccc1-c1cc2c(n3cnnc13)NCc1c(F)ccc3c1C(CO3)CO2 (stereo in doubt) [Form A, (S)-12-fluoro-4-(1-methyl-1H-pyrazol-5-yl)-7a,8,13,14-tetrahydro-7H-[1,2,4]triazolo[4′,3′:1,6]pyrido[3,2-b]benzofuro[4,3-fg][1,4]oxazonine] | about 1.48 eq. water | about 6.34 wt. %
2 | Cn1nccc1-c1cc2c(n3cnnc13)NCc1c(F)ccc3c1C(CO3)CO2 (stereo in doubt) [Form E, (S)-12-fluoro-4-(1-methyl-1H-pyrazol-5-yl)-7a,8,13,14-tetrahydro-7H-[1,2,4]triazolo[4′,3′:1,6]pyrido[3,2-b]benzofuro[4,3-fg][1,4]oxazonine] |  | about 0.23 wt. %
3 | Cn1nccc1-c1cc2c(n3cnnc13)NCc1c(F)ccc3c1C(CO3)CO2 (stereo in doubt) [Form U, (S)-12-fluoro-4-(1-methyl-1H-pyrazol-5-yl)-7a,8,13,14-tetrahydro-7H-[1,2,4]triazolo[4′,3′:1,6]pyrido[3,2-b]benzofuro[4,3-fg][1,4]oxazonine] |  | about 0.38 wt. %
